Drawing on patent publication US20240261267A1, “METHODS FOR TREATING MULTIPLE SCLEROSIS” (Vanda Pharmaceuticals Inc., priority 2021, published 2024), this text covers migration distance for two compounds.

In this assay the test system is primary mouse OPCs. Briefly: agarose drop migration assay. Format: cell-based. Conditions: any of the concentrations tested (0.3 nM to 3000 nM); after 5 days. Here is the method:
The effects of ponesimod, a selective S1P1 receptor agonist, and A971432, a selective S1P5 receptor agonist, on oligodendrocyte precursor cell (OPC) migration and differentiation were evaluated. Nine concentrations were tested (logarithmic dilutions ranging from 0.3 nM to 3000 nM, n=6 per concentration). Fingolimod phosphate (P-FTY720, 3000 nM, n=6) was included as a positive control, 0.1% DMSO was included (min.one/plate) as a negative control. Primary mouse OPCs were harvested on postnatal day 0 or 1 and mixed glia cultures were maintained for 14 days. Primary OPCs were then purified using the shake-off method, and used for either a migration assay, or a differentiation assay, as detailed below. To harvest primary mouse OPCs, cortices are isolated from mouse pups on postnatal day 0 or 1 and placed in ice-cold Dulbecco's Modified Eagle Medium (DMEM) (Sigma Aldrich, Overijse, BE). The cortices are homogenized and centrifuged for 5 minutes at 300 G. The supernatant is removed, and a papain solution is added for 30 minutes (125 uL DMEM solution per brain containing 20 units/ml papain and 40 μg/ml DNase, at 37 degrees). Digestion is inactivated by adding 9 ml cold DMEM. The solution is then centrifuged for 5 minutes at […]. The supernatant is carefully removed, and the pellet is resuspended in 2-5 ml culture medium (DMEM with 10% fetal calf serum (Biowest, Nuaillé, FR) and 1% pen/strep (Sigma Aldrich, Overijse, BE)). […] Cell suspension is divided over PLL (Sigma Aldrich, Overijse, BE)-coated flasks (2 brains per flask) and DMEM is added to a final volume of 10 ml. DMEM is replaced on day 4, 7, and 11. On day 7 and 11, insulin (Sigma Aldrich, Overijse, BE) is added to the medium (5μg/ml). On day 14, OPCs are separated from astrocytes by the shake-off method: flasks are placed on a shaker for 45 minutes at 75 rpm (37 degrees). […] The extent of cell migration is then measured after 5 days using Incucyte imaging analysis and fluorescent endpoint staining. For each well, the 15-20 cells that migrated the furthest away from the agarose drop are measured and averaged. […]

`O=C(O)C1CN(Cc2ccc(OCc3ccc(Cl)c(Cl)c3)cc2)C1` [A97]: the migration distance result is “did not affect migration distance”.

In the case of `CCC/N=C1\S/C(=C\c2ccc(OC[C@H](O)CO)c(Cl)c2)C(=O)N1c1ccccc1C` [ponesimod, (R)-5-[3-chloro-4-(2,3-dihydroxy-propoxy)-benz[Z]ylidene]-2-([Z]-propylimino)-3-o-tolyl-thiazolidin-4-one], the migration distance result is reported as “did not affect migration distance”.
